From US20260076885A1, “Complexation of Oxybenzone with C-methylresorcin[4]arene” (University of Cincinnati, priority 2021, published 2026)

Assays:
[1] = background, cited from earlier work
in vitro = in vitro ADME, human
Description: The skin permeation of OXB was evaluated using 6% OXB formulations with and without RsC1 in a Franz diffusion cell (FIG. 9 and Table 1).
The amounts of OXB remaining on the skin surface, inside the skin, and on the surface of the donor chamber cap were also determined at the end of the skin permeation experiments. The average total recovery of OXB from the permeation study was approximately 75%.
In addition, the amount of RsC1 that permeated through the skin to the receptor chamber was determined using an HPLC assay.
Rinse 1: rinsing once using receptor chamber solution (PBS with 0.02% sodium azide and 3% cyclodextrin); Rinse 2: rinsing four times using a methanol/water (85:15) solution. The values for the rinses, cut-up skin, and donor chamber cap were adjusted to correct for the extraction method and RsC1 interference during the OXB assay.
Skin permeation studies of OXB were performed using split-thickness human skin in a Franz diffusion cell with a 0.7 cm2 diffusion area. The skin samples were labeled with the code of the skin donor (n=3, CC, RT, or SL) and the same group of skin donors was used in each experiment. To prepare the skin samples, the cadaver skin was cut into 1.5 cm×1.5 cm pieces, thawed in Petri dishes with PBS at room temperature for 2 h, and then patted dry with Kimwipes before being mounted onto the diffusion cell with the stratum corneum side facing up. PBS containing 0.02% sodium azide as a preservative and 3% cyclodextrin as a solubilizing agent for OXB was used as the solution in the receptor chamber. The TEWL of the skin sample was measured to ensure skin integrity before the permeation study. For TEWL measurements, a vapometer was placed on top of the donor chamber of the diffusion cell and the measurement was repeated until a constant TEWL value was obtained (2-3 measurements, 15 min apart). Only skin samples with TEWL values of <10 g/m2/h were used for permeation experiments.
After the TEWL measurement, the skin in the diffusion cell was allowed to equilibrate for 1 h. During this equilibration period, the skin surface was maintained at 32±1° C. The receptor medium was stirred with a magnetic stirrer at 600 rpm to ensure uniform mixing. The permeation study was initiated by applying 2 mg/cm2 of the test formulation on the skin surface in the diffusion cell. The dose of 2 mg/cm2 was selected based on FDA guidelines. The test formulations were 6% OXB and 6% OXB+RsC1 (1:1) in ethanol. At 0, 3, 6, 10, 12, and 24 h after dosing, 0.5 mL samples were withdrawn from the receptor chamber and immediately replaced with the same volume of fresh PBS solution to maintain a constant receptor solution volume. At the end of the experiment, the residual formulation in the donor compartment was recovered by rinsing once with the receptor chamber solution (PBS with 0.02% sodium azide and 3% cyclodextrin) and four times with methanol/water (85:15) solution (each time with 0.5 ml for 30 s). The treated areas were then dried with Kimwipes. The donor chamber cap and gasket were soaked in 5 ml of methanol/water (85:15) solution for 30 min. The skin was then removed from the diffusion cell, cut into small pieces, and extracted with 4×1 ml of methanol/water (85:15) solution. Blank skin samples were used as the control. The samples collected from the receptor chamber, the rinses, and skin extraction were centrifuged (3000×g for 15 min), and OXB content in the supernatant was determined using HPLC. Statistical analysis was performed using the Student's unpaired t-test and p<0.05 was considered significant.
The HPLC assay was conducted using a Shimadzu HPLC system (Shimadzu Scientific Instruments, Inc., Addison, IL) with an LC-20 AT pump, an SPD-20A UV-Vis detector, a SL-20A autoinjector, and a Microsorb-MV100-5 C18 column (150×4.6 mm, Agilent Technologies, Santa Clara, CA). The mobile phase was methanol and water at a ratio of 85:15. The flow rate was 0.8 ml/min. […]

SMILES | Fraction of OXB that can penetrate human skin ([1]; Franz diffusion cell) | Fraction of OXB entering the bloodstream and eliminated through urine [1] | Total OXB recovered, Average (%) (in vitro; human, 24 h, 6 %) | recovery at 24 h, 6 % (in vitro; human, Average total recovery of OXB from the permeation study) | recovery at 24 h, 6 % (in vitro; human, Recovery of OXB, Donor chamber cap, Average (%)) | recovery at 24 h, 6 % (in vitro; human, Recovery of OXB, Rinse 1, Average (%)) | recovery at 24 h, 6 % (in vitro; human, Recovery of OXB, Rinse 2, Average (%)) | recovery at 24 h, 6 % (in vitro; human, Recovery of OXB, Skin cut-up, Average (%)) | Amount of RsC1 permeated through the skin to the receptor chamber (in vitro)
COc1ccc(C(=O)c2ccccc2)c(O)c1 [OXB, Oxybenzone] | 10% | 0.4% | 70.3% | ~75% | 0.6% | 24% | 22.9% | 2.7% | –
CC1c2cc(c(O)cc2O)C(C)c2cc(c(O)cc2O)C(C)c2cc(c(O)cc2O)C(C)c2cc1c(O)cc2O (stereo not drawn) [RsC1, C-methylresorcin[4]arene] | – | – | – | – | – | – | – | – | negligible
